The source of these data is the METLIN SMRT retention time set (Domingo-Almenara et al. 2019).

A short description of the data set: gradient 5% acetonitrile 3 min, to 50% in 2 min, to 85% in 15 min, held 3 min, 100 µL/min. Conditions: column: Zorbax Extend-C18 2.1 x 50 mm; eluents: water / acetonitrile, 0.1% formic acid. The gist of the method: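 The mobile phases were water and acetonitrile, each with 0.1% formic acid, pumped at 100 μL/min through a Zorbax Extend-C18 column (2.1 × 50 mm, 1.8 μm). Pure standards were injected as mixtures of ~100 molecules and detected by a quadrupole time-of-flight mass spectrometer in positive and negative ionization mode. Retention time came from computationally picked adduct peaks, each inspected by hand.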
As to `O=C1NC2(CCN(C(=O)Nc3ccc(Cl)cc3)CC2)N=C1c1ccccc1`, the RP-LC retention time stood at 829 s.

In turn, `CCOc1ccc(S(=O)(=O)N2CCC(C(=O)NCCc3csc(-c4ccccc4)n3)CC2)cc1` showed an RP-LC retention time of 997 s.

For the compound `COc1ccc2cccc(NC(=O)c3ccsc3)c2n1`, the RP-LC retention time was 1020 s.

Compound `O=C(Nc1cc(F)cc(F)c1)c1ccc(N2CCN(c3ccccn3)CC2)c([N+](=O)[O-])c1` registered an RP-LC retention time of 698 s.

Compound `c1ccc(-c2nc3cc(-c4noc(-c5ccco5)n4)ccc3o2)cc1` displayed an RP-LC retention time of 1240 s.

For the compound `Cc1ccc(-c2noc(Cn3ccnc3)n2)cc1`, the RP-LC retention time was 624 s.

In turn, `Cc1cc(N2CCN(C)CC2)n2nc(-c3ccc(C(C)(C)C)cc3)nc2n1` showed an RP-LC retention time of 656 s.

`O=C(NCc1ccccc1)N1CCCC(Cn2cnc3cccnc32)C1` (stereo not drawn): the RP-LC retention time came to 618 s.

In the case of `Cc1oc2c(C)c3oc(=O)c(CCC(=O)N4CCN(c5ccccn5)CC4)c(C)c3cc2c1C`, the RP-LC retention time stood at 728 s.

Turning to `O=C(c1n[nH]c2ccccc12)N1CCC(c2noc(C3CC3)n2)C1` (stereo not drawn), the RP-LC retention time is 720 s.

`O=C(Nc1ccccc1F)N1CCN(Cc2nc3cc(Cl)ccc3o2)CC1` showed an RP-LC retention time of 737 s.

The compound `O=C(NC1CCCCC1)C1CCN(C(=O)c2cccn2-c2cccnc2)CC1` returned an RP-LC retention time of 673 s.

In turn, `O=C(Cn1ncc2c(c1=O)N(C1CC1)C(=O)CS2)NCCC1=CCCCC1` had an RP-LC retention time of 754 s.

Compound `CC(C)CC[C@@H](O)[C@](C)(O)C1CC[C@@]2(O)C3=CC(=O)[C@]4(O)C[C@@H](O)[C@@H](O)C[C@]4(C)C3[C@H](O)C[C@]12C` (stereo partly drawn) returned an RP-LC retention time of 638 s.

In turn, `CC(CCNC(=O)c1ccc(NC(=O)C2=CSCCO2)cc1)N1CCCC1` (stereo not drawn) displayed an RP-LC retention time of 600 s.

As to `O=C(Nc1ccc(F)cc1)N1C[C@H]2C[C@H](C1)[C@H]1CCCC(=O)N1C2`, the RP-LC retention time came to 640 s.

The compound `CC1CN(c2ccccc2)c2nc3c(c(=O)n(CC(=O)O)c(=O)n3C)n2C1` (stereo not drawn) showed an RP-LC retention time of 709 s.

`COc1ccccc1Nc1nc(-c2ccccc2)cs1`: the RP-LC retention time was found to be 1150 s.

Turning to `O=C(Cn1cccc(-c2nc(-c3ccc(F)cc3)no2)c1=O)Nc1ccccc1Br`, the RP-LC retention time was 912 s.

With `COC(=O)c1c(C)[nH]c(C(=O)N2CCC(CC(=O)N3CCN(c4ccc(OC)cc4)CC3)CC2)c1C`, the RP-LC retention time stood at 702 s.

As for `CC(NC(=O)c1ccc(C(F)(F)F)cc1)C(=O)Nc1nc2ccccc2[nH]1` (stereo not drawn), the RP-LC retention time worked out at 641 s.

`CN(CC1CCOCC1)S(=O)(=O)c1cccc(Cl)c1` gave an RP-LC retention time of 876 s.

For the compound `CCOC(=O)c1cc(S(=O)(=O)N2CCCC2C(=O)NC2CCCCC2)cn1C` (stereo not drawn), the RP-LC retention time was determined as 875 s.

On to `O=C(NC1CC1)c1cc(=O)[nH]c2c(Cl)cccc12`, for which the RP-LC retention time is 626 s.

Consider `COC(=O)c1c(C)c(C(=O)C(C)N(C(=O)c2ccccc2Cl)C2CCCCC2)c(C)n1C` (stereo not drawn), for which the RP-LC retention time came out at 1160 s.

`COC(=O)c1c(C)[nH]c(C(=O)N2CCC(CC(=O)NCc3ccc(F)cc3)CC2)c1C`: the RP-LC retention time amounted to 727 s.

For the compound `COc1cccc(-c2nc(C3CCN(S(=O)(=O)c4ccc(C)c(F)c4)CC3)no2)c1`, the RP-LC retention time turned out to be 1170 s.

`O=C(C1CCN(c2nc3ccc(-c4cccc(F)c4)nc3s2)CC1)N1CCCC1`: the RP-LC retention time came to 981 s.

`Cn1nnnc1C1CCCN(S(=O)(=O)Cc2ccccc2F)C1` (stereo not drawn) displayed an RP-LC retention time of 757 s.

`COC(=O)c1ccc(NC(=O)c2sc(-c3cn(C(C)C)c4ncccc34)nc2C)cc1`: the RP-LC retention time amounted to 1090 s.

Compound `CN(C)c1cc2c(cc1NC(=O)Cc1ccccc1Cl)n(C)c(=O)c(=O)n2C` had an RP-LC retention time of 754 s.

`CCC(=O)c1cn(CC(=O)NCc2cc3c(cc2OC)OCCCO3)c2ccccc12` showed an RP-LC retention time of 837 s.

As to `Cc1c(Cl)cccc1Nc1c(-c2ccc(N3CCOCC3)cc2)nc2ncccn12`, the RP-LC retention time was determined as 758 s.

On to `O=C(Cc1cccc(F)c1)Nc1nnc(C2CC(=O)N(c3ccc(F)cc3)C2)o1` (stereo not drawn), for which the RP-LC retention time amounted to 726 s.

Regarding `Cc1oc(-c2ccc(NC(=O)c3ccc(Br)o3)cc2)nc1Cn1cccn1`, the RP-LC retention time was found to be 901 s.

The compound `CC1CCN(S(=O)(=O)N2CCC(C(=O)N3CCC(Cc4nncn4C(C)C)CC3)CC2)CC1` displayed an RP-LC retention time of 720 s.

As to `COc1ccccc1N1CCN(c2cc(SCC(=O)Nc3ccccc3F)ncn2)CC1`, the RP-LC retention time was determined as 1100 s.

Compound `COC[C@@H]1CN(S(=O)(=O)c2ccc(C)cc2)C[C@H]1c1ccncc1` returned an RP-LC retention time of 651 s.

Regarding `COc1ccc(CN2C(=O)[C@H](OC)[C@@H]2C2=CCNCC2)cc1`, the RP-LC retention time turned out to be 576 s.

As for `COc1ccc(-c2cc3nn(CC(=O)N4CCc5ccccc54)c(=O)n3c(C)n2)cc1`, the RP-LC retention time came out at 856 s.

The compound `CCc1noc(NC(C)=O)c1-c1ccc(OC)c(S(=O)(=O)Nc2cccc(C#N)c2)c1` displayed an RP-LC retention time of 738 s.

On to `COC(=O)COc1cc(-c2cccc(Cl)c2)nc2ccc(NC(=O)c3ccco3)cc12`, for which the RP-LC retention time amounted to 886 s.

As for `Cc1c(-c2noc(-c3ccc4c(c3)OCO4)n2)nnn1-c1ccc(F)cc1`, the RP-LC retention time worked out at 745 s.

In turn, `CCOC(=O)c1cccc(N2C=C(C(=O)OC)S(=O)(=O)c3ccccc32)c1` yielded an RP-LC retention time of 858 s.

`O=C(OCc1nc2ccccc2s1)c1ccc([N+](=O)[O-])s1` showed an RP-LC retention time of 970 s.

With `CCC(=O)N1CCCc2cc(NC(=O)COc3ccc(F)cc3)ccc21`, the RP-LC retention time was found to be 850 s.

Compound `CCCS(=O)(=O)N1CCC(Cc2ccc(COc3ccncc3)cc2)CC1` had an RP-LC retention time of 701 s.

For the compound `Cc1ccc(F)c(NS(=O)(=O)c2ccc(-c3nnc(C4CCC4)o3)o2)c1`, the RP-LC retention time worked out at 924 s.

Compound `COc1cccc(CCNC(=O)CN2C(=O)CSc3cccn3-c3ccccc32)c1` displayed an RP-LC retention time of 900 s.

On to `CC1=C(C(=O)OCCc2ccccc2)C(c2ccc(C)s2)NC(=O)N1` (stereo not drawn), for which the RP-LC retention time is 859 s.

Compound `CCC(=O)N1CCCC(C(=O)NC2CC2)C1` (stereo not drawn) had an RP-LC retention time of 567 s.

Compound `CCNC(=O)C1CCN(c2cnn(Cc3ccccc3)c(=O)c2)CC1` registered an RP-LC retention time of 674 s.

Turning to `O=C(c1cnc2ccccc2n1)N1CCN(Cc2nc(-c3ccc(F)cc3)cs2)CC1`, the RP-LC retention time is 719 s.

`CCCNC(=O)N1CCCN(C2=NS(=O)(=O)C(c3ccc(C)c(C)c3)=C2C)CC1` gave an RP-LC retention time of 809 s.

For the compound `CCOC(=O)C1CC(C)=C(C)CC1C(=O)O` (stereo not drawn), the RP-LC retention time stood at 854 s.

`CCOC(=O)C1CCCN(c2ccc3nnc(CCc4nc(-c5ccccc5C)no4)n3n2)C1` (stereo not drawn) displayed an RP-LC retention time of 1030 s.

`CCc1nc2cc(-c3noc(/C=C/c4ccc(C)o4)n3)ccc2o1` returned an RP-LC retention time of 1180 s.

`O=C(NCCN1CCCC1)c1cccc(-c2ccc(N3CCCCCC3)nc2)c1` displayed an RP-LC retention time of 574 s.
